Among the test systems are COLO 205; HCT-15; M14; LOX IMVI; NCI-H23; HT-29; ACHN; KM12; RPMI-8226; NCI-H226; SW-620; RXF 393; HOP-92; HOP-62; SK-MEL-2; SF-268; SF-539; OVCAR-4; CAKI-1.
Common to all, as to assay: NCI anticancer screen, dose series, 48 h

Each structure is given as a SMILES string.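 All cell lines were grown in 96-well plates and treated with compound for 48 hours. GI50 is the concentration that inhibits growth by half.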 Activity calls are given as the source filed them. Cut-off read from the data, not from the text of the source: active = GI50 up to about 1.1 µM and inactive = higher.

Take `CNC(N)NC`: the GI50 in the assay on COLO 205 is > 100 µM (inactive); in the assay on HCT-15 it was greater than 100 µM; with M14 it was > 100 µM (inactive); in the assay with LOX IMVI it was > 100 µM (inactive); in the assay on NCI-H23, > 100 µM (inactive); in the assay on HT-29, > 100 µM (inactive). Moreover, the GI50 with ACHN, with KM12, with RPMI-8226, in the assay on NCI-H226, in the assay on SW-620 and in the assay with RXF 393 was > 100 µM (inactive) throughout. In addition, the GI50 in the assay on HOP-92, with HOP-62, with SK-MEL-2, in the assay on SF-268, in the assay with SF-539 and in the assay with OVCAR-4 was > 100 µM (inactive) each time.
For `COc1ccccc1NC(=O)CC(=O)n1nc(C)c(/N=N/c2ccccc2F)c1C`, the GI50 in the assay with COLO 205 is > 100 µM (inactive); in the assay on HCT-15 it was greater than 100 µM; in the assay on M14 it was > 100 µM (inactive); in the assay on LOX IMVI, > 100 µM (inactive); with NCI-H23, > 96.2 µM (inactive); in the assay on HT-29, > 100 µM (inactive). The GI50 is > 100 µM (inactive) in the assay on ACHN; > 100 µM (inactive) in the assay on KM12; > 100 µM (inactive) in the assay with RPMI-8226; 45.1 µM (inactive) in the assay with NCI-H226; > 100 µM (inactive) with SW-620; > 57.3 µM (inactive) in the assay with RXF 393. In addition, the GI50 with HOP-92 was 37.7 µM (inactive); in the assay on HOP-62 it was 32.6 µM (inactive); in the assay with SK-MEL-2, > 100 µM (inactive); in the assay on SF-268, 28.7 µM (inactive); with SF-539 it was 21.5 µM (inactive); in the assay with OVCAR-4 it was > 100 µM (inactive). In the assay with CAKI-1, the GI50 was > 100 µM (inactive).
In the case of `CSc1ccc2c(cc1=O)C(NC(=O)c1ccccc1)CCc1cc(O)c(O)c(O)c1-2` (stereo not given), the GI50 was 23.2 µM (inactive) with COLO 205; 18.1 µM with HCT-15; 15.6 µM (inactive) with M14; 16.4 µM (inactive) in the assay on LOX IMVI; 4.37 µM (inactive) in the assay on NCI-H23; 32.3 µM (inactive) with HT-29. Further, the GI50 is 37.6 µM (inactive) in the assay on ACHN; 4.81 µM (inactive) in the assay with KM12; 19.1 µM (inactive) in the assay on RPMI-8226; 21.2 µM (inactive) in the assay on NCI-H226; 15.7 µM (inactive) in the assay on SW-620; 24.5 µM (inactive) in the assay with RXF 393. The GI50 is 4.06 µM (inactive) in the assay with HOP-92; 6.01 µM (inactive) in the assay with HOP-62; 5.5 µM (inactive) in the assay with SK-MEL-2; 22.9 µM (inactive) in the assay with SF-268; 3.15 µM (inactive) with SF-539; 16.3 µM (inactive) with OVCAR-4. In addition, the GI50 in the assay with CAKI-1 is 27.6 µM (inactive).
`Cc1cc(C)c2c(c1)C/C(=C\c1ccccc1C(=O)O)C2=O`: the GI50 in the assay on HCT-15 is 47.4 µM; in the assay with M14 it was > 100 µM (inactive); in the assay on LOX IMVI it was > 100 µM (inactive); in the assay with NCI-H23, > 100 µM (inactive); in the assay with HT-29, > 100 µM (inactive); in the assay on ACHN, > 100 µM (inactive). The GI50 is > 100 µM (inactive) in the assay with KM12; > 100 µM (inactive) in the assay on RPMI-8226; 56.9 µM (inactive) with NCI-H226; > 100 µM (inactive) in the assay with SW-620; 51.9 µM (inactive) in the assay on RXF 393; 81.8 µM (inactive) with HOP-92. Besides, the GI50 in the assay with HOP-62 is > 100 µM (inactive); with SF-268, > 100 µM (inactive); with SF-539, 39.4 µM (inactive); in the assay with OVCAR-4, > 100 µM (inactive); in the assay on CAKI-1, > 100 µM (inactive).
On to `c1ccc(CN(Cn2cccn2)Cn2cccn2)nc1`, for which the GI50 was > 100 µM (inactive) in the assay with COLO 205; greater than 100 µM with HCT-15; > 100 µM (inactive) in the assay on M14; > 100 µM (inactive) in the assay on LOX IMVI; > 100 µM (inactive) in the assay with NCI-H23; > 100 µM (inactive) in the assay with ACHN. Moreover, the GI50 is > 100 µM (inactive) in the assay on KM12; 29.4 µM (inactive) in the assay with RPMI-8226; > 100 µM (inactive) in the assay with SW-620; > 100 µM (inactive) in the assay with RXF 393; > 100 µM (inactive) in the assay with HOP-92; > 100 µM (inactive) in the assay with HOP-62. Further, the GI50 in the assay on SK-MEL-2, in the assay on SF-268, in the assay with OVCAR-4 and with CAKI-1 was > 100 µM (inactive) each time.
Regarding `COc1cc2c(cc1OC)C(CC(=O)NN=C(C)C)NCC2` (stereo not given), the GI50 in the assay on COLO 205 is > 100 µM (inactive); in the assay on HCT-15, greater than 100 µM; in the assay on M14 it was > 100 µM (inactive); in the assay on LOX IMVI, > 100 µM (inactive); in the assay on NCI-H23 it was > 100 µM (inactive); in the assay on HT-29, > 100 µM (inactive). Besides, the GI50 with ACHN, in the assay with KM12, in the assay on RPMI-8226, with NCI-H226, with SW-620 and with RXF 393 was > 100 µM (inactive) throughout. Further, the GI50 in the assay on HOP-92, in the assay on HOP-62, in the assay with SK-MEL-2, with SF-268, in the assay on SF-539 and in the assay on OVCAR-4 was > 100 µM (inactive) each time. Further, the GI50 with CAKI-1 is > 100 µM (inactive).
For the compound `CCCCCCCCCC1CC(=O)OC23CCCC(=O)C12O3` (stereo not given), the GI50 with COLO 205 was > 100 µM (inactive); in the assay with HCT-15, 84.9 µM; in the assay on M14 it was > 100 µM (inactive); in the assay on LOX IMVI, 70.5 µM (inactive); in the assay on NCI-H23, > 100 µM (inactive); in the assay on HT-29, > 100 µM (inactive). The GI50 is > 100 µM (inactive) with ACHN; 82.2 µM (inactive) in the assay on KM12; > 100 µM (inactive) in the assay on RPMI-8226; > 100 µM (inactive) in the assay on NCI-H226; > 100 µM (inactive) in the assay on SW-620; > 100 µM (inactive) in the assay with RXF 393. For the same compound, the GI50 in the assay with HOP-92, with HOP-62, in the assay on SK-MEL-2, in the assay on SF-268, in the assay with SF-539 and in the assay on OVCAR-4 was > 100 µM (inactive) in each case. For the same compound, in the assay on CAKI-1, the GI50 was > 100 µM (inactive).
Regarding `Nc1ccccc1C(=O)C(Br)C(Br)c1ccc2c(c1)OCO2` (stereo not given), the GI50 with COLO 205 is 14.2 µM (inactive); with HCT-15 it was 20.8 µM; in the assay on M14, 18.4 µM (inactive); in the assay on LOX IMVI it was 14 µM (inactive); in the assay with NCI-H23 it was 19.9 µM (inactive); in the assay on HT-29, 17.3 µM (inactive). In addition, the GI50 with ACHN is 18.2 µM (inactive); in the assay with KM12, 18 µM (inactive); with RPMI-8226 it was 33.7 µM (inactive); in the assay with NCI-H226 it was 20 µM (inactive); in the assay with SW-620 it was 32.6 µM (inactive); in the assay with RXF 393, 19.7 µM (inactive). Moreover, the GI50 with HOP-92 was 15 µM (inactive); in the assay on HOP-62 it was 21.8 µM (inactive); with SK-MEL-2, 16.9 µM (inactive); in the assay with SF-268, 26.4 µM (inactive); with SF-539, 18.4 µM (inactive); in the assay with OVCAR-4 it was 27.4 µM (inactive).
`CC1=C2C(=O)C(C)(C)C=C2C(=O)[C@](C)(O)C12CC2` [DEHYDROILLUDIN M]: the GI50 was > 1 µM (active) with COLO 205; 0.468 µM in the assay with HCT-15; 0.678 µM (active) with M14; 0.402 µM (active) in the assay with LOX IMVI; 0.499 µM (active) with NCI-H23; 0.248 µM (active) in the assay with HT-29. Besides, the GI50 in the assay on ACHN was 0.552 µM (active); in the assay with KM12 it was > 0.935 µM (active); in the assay on RPMI-8226 it was > 1 µM (active); with NCI-H226 it was > 1 µM (active); in the assay with SW-620 it was > 1 µM (active); in the assay on RXF 393 it was 0.593 µM (active). Also, the GI50 with HOP-92 was > 1 µM (active); in the assay on HOP-62 it was > 1 µM (active); with SK-MEL-2 it was 0.614 µM (active); with SF-268, 0.521 µM (active); in the assay with SF-539, > 1 µM (active); in the assay with OVCAR-4, 0.766 µM (active). The GI50 in the assay on CAKI-1 is > 1 µM (active).
For the compound `N#Cc1ccc2cc3c(cc2c1)OCO3`, the GI50 was > 100 µM (inactive) in the assay with COLO 205; greater than 100 µM in the assay with HCT-15; > 100 µM (inactive) with M14; > 100 µM (inactive) in the assay on LOX IMVI; > 100 µM (inactive) in the assay with NCI-H23; > 100 µM (inactive) in the assay on HT-29. The GI50 with ACHN is 59.3 µM (inactive); in the assay on KM12 it was > 100 µM (inactive); in the assay with RPMI-8226, 54.5 µM (inactive); in the assay with NCI-H226, 39.4 µM (inactive); in the assay with RXF 393, 61.5 µM (inactive); with HOP-92 it was 35.6 µM (inactive). The GI50 in the assay on HOP-62 was > 100 µM (inactive); in the assay on SK-MEL-2, > 100 µM (inactive); in the assay with SF-268 it was > 100 µM (inactive); in the assay on SF-539 it was 27 µM (inactive); in the assay with OVCAR-4 it was > 100 µM (inactive).
In the case of `COc1ccc2c(c1)C1C(CO2)C(c2ccccc2)=NN1c1ccccc1` (stereo not given), the GI50 in the assay on COLO 205, with LOX IMVI, in the assay with NCI-H23, in the assay with HT-29, in the assay with ACHN and in the assay with KM12 was > 100 µM (inactive) each time. The GI50 in the assay with RPMI-8226 is 48.1 µM (inactive); with SW-620 it was > 100 µM (inactive); with RXF 393, 35.6 µM (inactive); in the assay with HOP-92, > 100 µM (inactive); with HOP-62, > 100 µM (inactive); with SK-MEL-2 it was > 100 µM (inactive). The GI50 with SF-268 was 89.3 µM (inactive); with SF-539, > 100 µM (inactive).
Take `COc1cc2cc3c4c(cc(OC)c(OC)c4c2cc1OC)CCN3C(=O)OCCBr`: the GI50 in the assay on COLO 205 was 78 µM (inactive); with HCT-15 it was 60 µM; in the assay with LOX IMVI, 32.7 µM (inactive); with NCI-H23, 81.7 µM (inactive); with HT-29, 50.1 µM (inactive); in the assay on ACHN, 50.9 µM (inactive). Moreover, the GI50 in the assay on KM12 was 60.7 µM (inactive); with NCI-H226, 0.259 µM (active); in the assay on SW-620, 60.8 µM (inactive); with RXF 393, 42.5 µM (inactive); with HOP-92, 39.1 µM (inactive); in the assay with SK-MEL-2, > 100 µM (inactive). Further, the GI50 was > 100 µM (inactive) in the assay on SF-268, 22.4 µM (inactive) in the assay with SF-539 and 41.9 µM (inactive) with CAKI-1.

The values are drawn from ChEMBL document CHEMBL1201862, “PubChem BioAssay data set” (2004).
